Columns and labels:
Diamond back moth = test: insecticidal activity against diamond back moth, airbrush spray; type: in vivo; conditions: for control (test results against diamond back moth): mortality after 72 hrs
Method in brief: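 Airbrush leaf-disc spray test: both faces of 2 cm cabbage discs received 0.5 ml of test solution at 0.7 kg/cm^2. Solutions were made in acetone:methanol (1:1) and brought to concentration with 0.1% Tween 80 in water. Ten second-instar larvae per disc, triplicates, were held at 25° C and 60˜70% R.H., with mortality recorded at 72 hrs.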

armyworm = test: bioactivity test against armyworm, airbrush spray; type: in vivo
[1] = test system: Green peach aphids (Myzus Persicae Sulzer); test: bioactivity test against green peach aphid, airbrush foliar spray; type: in vivo; conditions: for Insecticidal activity against peach aphid (%): contrastive test; for control (test results against green peach aphid): death rate after 48 hrs
Method in brief: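 Aphids (15-30 per cabbage leaf disc) on moist filter paper were airbrush-sprayed at 10 psi, 0.5 mL, with compound from acetone:methanol (1:1) diluted in water with 0.1% tween 80. Held at 25±1 C, 60±5% RH; survivors counted after 48 hrs to give death rates.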

carmine spider mite = test: bioactivity test against carmine spider mite, airbrush spray; type: in vivo; conditions: for control against carmine spider mite: mortality after 72 hrs
Method in brief: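 Broadbean seedlings infested with adult mites were sprayed with compound (acetone/methanol stock diluted in 0.1% Tween 80 water) by airbrush at 0.7 kg/cm^2, 0.5 ml. Three replicates were run. Mortality was scored after 72 hrs.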

corn rust = test: protectant activity in vivo against corn rust
wheat powdery mildew = test: protectant activity in vivo against wheat powdery mildew
cucumber downy mildew = test: protectant activity in vivo against cucumber downy mildew; conditions: for control effect against cucumber downy mildew (%): protectant activity

## CCc1ncnc(NCCc2ccc(Oc3ccc(C(F)(F)F)cn3)cc2)c1Cl [Compound I-6765]
Diamond back moth; 100 ppm
  control (test results against diamond back moth): 100%
Diamond back moth; 600 ppm
  control (test results against diamond back moth): 100%
armyworm; 600 ppm, mortality after 72 h
  control (test results against armyworm): 100%
armyworm; 72 h, 100 ppm, mortality after 72 h
  pest or weed control at 100 ppm: 100%
[1]; 1.25 mg/L
  Insecticidal activity against peach aphid (%): 84%
[1]; 2.5 mg/L
  Insecticidal activity against peach aphid (%): 100%
[1]; 5 mg/L
  Insecticidal activity against peach aphid (%): 100%
[1]; 10 mg/L
  Insecticidal activity against peach aphid (%): 100%
[1]; 100 mg/L
  Insecticidal activity against peach aphid (%): 100%
[1]; 600 mg/L
  Insecticidal activity against peach aphid (%): 100%
[1]; 2.5 ppm
  control (test results against green peach aphid): 100%
[1]; 5 ppm
  control (test results against green peach aphid): 100%
[1]; 10 ppm
  control (test results against green peach aphid): 100%
[1]; 100 ppm
  control (test results against green peach aphid): 100%
[1]; 600 ppm
  control (test results against green peach aphid): 100%
Carmine spider mite; 10 mg/L, contrastive test
  Insecticidal activity against carmine spider mite (% ): 100%
Carmine spider mite; 100 mg/L, contrastive test
  Insecticidal activity against carmine spider mite (% ): 100%
Carmine spider mite; 600 mg/L, contrastive test
  Insecticidal activity against carmine spider mite (% ): 100%
Carmine spider mite; 10 ppm
  control against carmine spider mite: 100%
Carmine spider mite; 100 ppm
  control against carmine spider mite: 100%
Carmine spider mite; 600 ppm
  control against carmine spider mite: 100%
Corn rust; 100 ppm
  protectant activity against corn rust in vivo: 100%
Corn rust; 400 ppm
  protectant activity against corn rust in vivo: 100%
Wheat powdery mildew; 6.25 ppm
  protectant activity against wheat powdery mildew in vivo: 100%
Wheat powdery mildew; 100 ppm
  protectant activity against wheat powdery mildew in vivo: 100%
Wheat powdery mildew; 400 ppm
  protectant activity against wheat powdery mildew in vivo: 100%
Wheat powdery mildew; Triticum aestivum, 168 h, read-out: control effect against wheat powdery mildew (%), 6.25 mg/L, protectant activity
  pest or weed control at 6.25 µg/mL: 100%
Wheat powdery mildew; Triticum aestivum, 168 h, read-out: control effect against wheat powdery mildew (%), 25 mg/L, protectant activity
  pest or weed control at 25 µg/mL: 100%
Wheat powdery mildew; Triticum aestivum, 168 h, read-out: control effect against wheat powdery mildew (%), 100 mg/L, protectant activity
  pest or weed control at 100 µg/mL: 100%
Wheat powdery mildew; Triticum aestivum, 168 h, read-out: control effect against wheat powdery mildew (%), 400 mg/L, protectant activity
  pest or weed control at 400 µg/mL: 100%
Wheat powdery mildew; Triticum aestivum, 168 h, read-out: protectant activity against wheat powdery mildew in vivo, 25 ppm
  pest or weed control at 25 ppm: 100%
Cucumber downy mildew; 50 ppm
  protectant activity against cucumber downy mildew in vivo: 100%
Cucumber downy mildew; 100 ppm
  protectant activity against cucumber downy mildew in vivo: 100%
Cucumber downy mildew; 400 ppm
  protectant activity against cucumber downy mildew in vivo: 100%
Cucumber downy mildew; Cucumis sativus, 168 h, read-out: protectant activity against cucumber downy mildew in vivo, 6.25 ppm
  pest or weed control at 6.25 ppm: 80 to 99%
Cucumber downy mildew; Cucumis sativus, 168 h, read-out: protectant activity against cucumber downy mildew in vivo, 12.5 ppm
  pest or weed control at 12.5 ppm: 80 to 99%
Cucumber downy mildew; Cucumis sativus, 168 h, read-out: protectant activity against cucumber downy mildew in vivo, 25 ppm
  pest or weed control at 25 ppm: 100%

## FC(F)c1ncnc(NCCc2ccc(Oc3ccc(Cl)cc3)nc2)c1Cl [III-547]
Diamond back moth; 10 mg/L
  Insecticidal activity against diamond back moth (%): 57%
Diamond back moth; 100 mg/L
  Insecticidal activity against diamond back moth (%): 100%
Diamond back moth; 600 mg/L
  Insecticidal activity against diamond back moth (%): 100%
Diamond back moth; 100 ppm
  control (test results against diamond back moth): 100%
Diamond back moth; 600 ppm
  control (test results against diamond back moth): 100%
armyworm; 10 mg/L
  Insecticidal activity against armyworm (%): 95%
armyworm; 100 mg/L
  Insecticidal activity against armyworm (%): 100%
armyworm; 600 mg/L
  Insecticidal activity against armyworm (%): 100%
armyworm; 100 ppm, mortality after 72 h
  control (test results against armyworm): 100%
armyworm; 600 ppm, mortality after 72 h
  control (test results against armyworm): 100%
[1]; 10 mg/L
  Insecticidal activity against peach aphid (%): 100%
[1]; 100 mg/L
  Insecticidal activity against peach aphid (%): 100%
[1]; 600 mg/L
  Insecticidal activity against peach aphid (%): 100%
[1]; 10 ppm
  control (test results against green peach aphid): 100%
[1]; 100 ppm
  control (test results against green peach aphid): 100%
[1]; 600 ppm
  control (test results against green peach aphid): 100%
Carmine spider mite; 100 mg/L, contrastive test
  Insecticidal activity against carmine spider mite (% ): 100%
Carmine spider mite; 600 mg/L, contrastive test
  Insecticidal activity against carmine spider mite (% ): 100%
Carmine spider mite; 100 ppm
  control against carmine spider mite: 100%
Carmine spider mite; 600 ppm
  control against carmine spider mite: 100%
Corn rust; 400 ppm
  protectant activity against corn rust in vivo: 100%
Wheat powdery mildew; 400 ppm
  protectant activity against wheat powdery mildew in vivo: 100%
Cucumber downy mildew; 25 mg/L
  control effect against cucumber downy mildew (%): 100%
Cucumber downy mildew; 50 mg/L
  control effect against cucumber downy mildew (%): 100%
Cucumber downy mildew; 100 mg/L
  control effect against cucumber downy mildew (%): 100%
Cucumber downy mildew; 400 mg/L
  control effect against cucumber downy mildew (%): 100%
Cucumber downy mildew; 25 ppm
  protectant activity against cucumber downy mildew in vivo: 100%
Cucumber downy mildew; 50 ppm
  protectant activity against cucumber downy mildew in vivo: 100%
Cucumber downy mildew; 100 ppm
  protectant activity against cucumber downy mildew in vivo: 100%
Cucumber downy mildew; 400 ppm
  protectant activity against cucumber downy mildew in vivo: 100%

## Cc1ncnc(NCCc2ccc(Oc3ccc(C#N)cc3F)cc2)c1Cl [II-204]
Diamond back moth; 10 mg/L
  Insecticidal activity against diamond back moth (%): 20%
Diamond back moth; 100 mg/L
  Insecticidal activity against diamond back moth (%): 100%
Diamond back moth; 600 mg/L
  Insecticidal activity against diamond back moth (%): 100%
Diamond back moth; 100 ppm
  control (test results against diamond back moth): 100%
Diamond back moth; 600 ppm
  control (test results against diamond back moth): 100%
armyworm; 10 mg/L
  Insecticidal activity against armyworm (%): 47%
armyworm; 100 mg/L
  Insecticidal activity against armyworm (%): 100%
armyworm; 600 mg/L
  Insecticidal activity against armyworm (%): 100%
armyworm; 100 ppm, mortality after 72 h
  control (test results against armyworm): 100%
armyworm; 600 ppm, mortality after 72 h
  control (test results against armyworm): 100%
[1]; 1.25 mg/L
  Insecticidal activity against peach aphid (%): 60%
[1]; 2.5 mg/L
  Insecticidal activity against peach aphid (%): 97%
[1]; 5 mg/L
  Insecticidal activity against peach aphid (%): 100%
[1]; 10 mg/L
  Insecticidal activity against peach aphid (%): 100%
[1]; 100 mg/L
  Insecticidal activity against peach aphid (%): 100%
[1]; 600 mg/L
  Insecticidal activity against peach aphid (%): 100%
[1]; 5 ppm
  control (test results against green peach aphid): 100%
[1]; 10 ppm
  control (test results against green peach aphid): 100%
[1]; 100 ppm
  control (test results against green peach aphid): 100%
[1]; 600 ppm
  control (test results against green peach aphid): 100%
Carmine spider mite; 2.5 mg/L
  Insecticidal activity against carmine spider mite (% ): 60%
Carmine spider mite; 5 mg/L
  Insecticidal activity against carmine spider mite (% ): 80%
Carmine spider mite; 10 mg/L, contrastive test
  Insecticidal activity against carmine spider mite (% ): 100%
Carmine spider mite; 100 mg/L, contrastive test
  Insecticidal activity against carmine spider mite (% ): 100%
Carmine spider mite; 600 mg/L, contrastive test
  Insecticidal activity against carmine spider mite (% ): 100%
Carmine spider mite; 10 ppm
  control against carmine spider mite: 100%
Carmine spider mite; 100 ppm
  control against carmine spider mite: 100%
Carmine spider mite; 600 ppm
  control against carmine spider mite: 100%
Corn rust; 25 ppm
  protectant activity against corn rust in vivo: 100%
Corn rust; 100 ppm
  protectant activity against corn rust in vivo: 100%
Corn rust; 400 ppm
  protectant activity against corn rust in vivo: 100%
Wheat powdery mildew; 6.25 mg/L, protectant activity
  control effect against wheat powdery mildew (%): 100%
Wheat powdery mildew; 25 mg/L, protectant activity
  control effect against wheat powdery mildew (%): 100%
Wheat powdery mildew; 100 mg/L, protectant activity
  control effect against wheat powdery mildew (%): 100%
Wheat powdery mildew; 400 mg/L, protectant activity
  control effect against wheat powdery mildew (%): 100%
Wheat powdery mildew; 6.25 ppm
  protectant activity against wheat powdery mildew in vivo: 100%
Wheat powdery mildew; 25 ppm
  protectant activity against wheat powdery mildew in vivo: 100%
Wheat powdery mildew; 100 ppm
  protectant activity against wheat powdery mildew in vivo: 100%
Wheat powdery mildew; 400 ppm
  protectant activity against wheat powdery mildew in vivo: 100%
Cucumber downy mildew; 25 ppm
  protectant activity against cucumber downy mildew in vivo: 100%
Cucumber downy mildew; 50 ppm
  protectant activity against cucumber downy mildew in vivo: 100%
Cucumber downy mildew; 100 ppm
  protectant activity against cucumber downy mildew in vivo: 100%
Cucumber downy mildew; 400 ppm
  protectant activity against cucumber downy mildew in vivo: 100%

## FC(F)c1ncnc(NCCc2ccc(Oc3ccccc3)nc2)c1Cl [III-541]
Diamond back moth; 600 ppm
  control (test results against diamond back moth): 100%
armyworm; 600 ppm, mortality after 72 h
  control (test results against armyworm): 100%
[1]; 100 ppm
  control (test results against green peach aphid): 100%
[1]; 600 ppm
  control (test results against green peach aphid): 100%
Carmine spider mite; 600 ppm
  control against carmine spider mite: 100%
Corn rust; 400 ppm
  protectant activity against corn rust in vivo: 100%
Wheat powdery mildew; 400 ppm
  protectant activity against wheat powdery mildew in vivo: 100%
Cucumber downy mildew; 3.125 mg/L
  control effect against cucumber downy mildew (%): 95%
Cucumber downy mildew; 6.25 mg/L
  control effect against cucumber downy mildew (%): 100%
Cucumber downy mildew; 12.5 mg/L
  control effect against cucumber downy mildew (%): 100%
Cucumber downy mildew; 25 mg/L
  control effect against cucumber downy mildew (%): 100%
Cucumber downy mildew; 50 mg/L
  control effect against cucumber downy mildew (%): 100%
Cucumber downy mildew; 100 mg/L
  control effect against cucumber downy mildew (%): 100%
Cucumber downy mildew; 400 mg/L
  control effect against cucumber downy mildew (%): 100%
Cucumber downy mildew; 6.25 ppm
  protectant activity against cucumber downy mildew in vivo: 100%
Cucumber downy mildew; 12.5 ppm
  protectant activity against cucumber downy mildew in vivo: 100%
Cucumber downy mildew; 25 ppm
  protectant activity against cucumber downy mildew in vivo: 100%
Cucumber downy mildew; 50 ppm
  protectant activity against cucumber downy mildew in vivo: 100%
Cucumber downy mildew; 100 ppm
  protectant activity against cucumber downy mildew in vivo: 100%
Cucumber downy mildew; 400 ppm
  protectant activity against cucumber downy mildew in vivo: 100%

— US9770026B2, “Substituted pyrimidine compound and uses thereof” (Shenyang Sinochem Agrochemicals R&D Co., Ltd., priority 2012, dated 2017)
